Results on 30 substances are retold here after patent publication US20240115705A1, “Regulation of Butyrophilin subfamily 3 member A1 (BTN3A1, CD277)” (The J. Gladstone Institutes, a testamentary trust …, priority 2021, published 2024).

For the series, the system named is Daudi-Cas9 cells. Briefly: Cancer-T cell co-culture genome-wide CRISPR knockout screen (Vγ9Vδ2 T cell killing). The conditions noted are these: for score: MAGeCK sgRNA test, co-culture screen; for LFC: log-fold change of sgRNA, surviving cells after co-culture vs baseline; for LFC / treat mean: MAGeCK; for treat mean: sgRNA abundance in surviving Daudi-Cas9 KO cells after 24 hours Vγ9Vδ2 T cell co-culture with zoledronate; for high_in_treatment: sgRNA enriched (TRUE) or depleted (FALSE) after T cell co-culture. Format: cell-based, human.

Regarding “FBXW7_TGAAGTCTCGTTGAAACTG: library sgRNA targeting FBXW7 (as printed in the source, key not given here)”, the score turned out to be 6.8093, the LFC came out at 1.4811, the treat mean was determined as 2652.5 and the high_in_treatment entry is “TRUE”.

With “FBXW7_TTCTTCCAACTGTCCTTGC: library sgRNA targeting FBXW7 (as printed in the source, key not given here)”, the score is 7.5154, the LFC was found to be 1.1042, the treat mean turned out to be 6114.5 and the high_in_treatment result is “TRUE”.

As for “FCRL2_ACTATTTCTGTAGTACCAA: library sgRNA targeting FCRL2 (listed as DNA, chemistry not fully specified)”, the score turned out to be 6.1577, the LFC is 2.9186, the treat mean is 417.46 and the high_in_treatment result is on record as “TRUE”.

Turning to “GGNBP2_GTATGGGAACTAATGTCGC: library sgRNA targeting GGNBP2 (listed as DNA, chemistry not fully specified)”, the score is 6.4369, the LFC stood at 1.4472, the treat mean is 2491.2 and the high_in_treatment result is “TRUE”.

Regarding “GMPPB_GCCGTGAGCTACATGTCGC: library sgRNA targeting GMPPB (listed as DNA, chemistry not fully specified)”, the score is recorded as 6.4797, the LFC is reported as −2.6559, the treat mean is reported as 627.87 and the high_in_treatment entry is “FALSE”.

As to “GSS_ACCCCAGCTGTGCACCGGT: library sgRNA targeting GSS (listed as DNA, chemistry not fully specified)”, the score turned out to be 6.1722, the LFC is −4.0666, the treat mean is listed as 169.48 and the high_in_treatment result was “FALSE”.

For the substance “GTF2A2_AGCACTGGCTCAGAGGGTC: library sgRNA targeting GTF2A2 (listed as DNA, chemistry not fully specified)”, the score was 6.6409, the LFC is −6.616, the treat mean is given as 29.574 and the high_in_treatment entry is given as “FALSE”.

For “HISTIH3J_CACGCAAGGCCACGGTGCC: library sgRNA targeting HIST-1H3J (listed as DNA, chemistry not fully specified)”, the score is reported as 6.0349, the LFC was 1.0769, the treat mean was 4138.5 and the high_in_treatment entry is on record as “TRUE”.

As for “IFFO1_GGCCTGGGTCGTCGCGACC: library sgRNA targeting IFFO1 (as printed in the source, key not given here)”, the score is recorded as 5.9717, the LFC is 4.5353, the treat mean is listed as 68.011 and the high_in_treatment entry is reported as “TRUE”.

Turning to “IFNAR1_TCCATCAGATGCTTGTACG: library sgRNA targeting IFNAR1 (listed as DNA, chemistry not fully specified)”, the score came to 7.1422, the LFC came to 1.2274, the treat mean is 4399.3 and the high_in_treatment result was “TRUE”.

With “IRF1_AGCCGAGATGCTAAGAGCA: library sgRNA targeting IRF1 (as printed in the source, key not given here)”, the score was determined as 8.1693, the LFC is 1.6173, the treat mean is listed as 3151.9 and the high_in_treatment result is given as “TRUE”.

As to “IRF1_CACCTCCTCGATATCTGGC: library sgRNA targeting IRF1 (as printed in the source, key not given here)”, the score was determined as 8.8869, the LFC stood at 1.2122, the treat mean amounted to 7029.4 and the high_in_treatment entry is “TRUE”.

In the case of “IRF1_CTAGGCCGATACAAAGCAG: library sgRNA targeting IRF1 (as printed in the source, key not given here)”, the score is reported as 9.7786, the LFC is 1.6906, the treat mean is reported as 4103.9 and the high_in_treatment result is listed as “TRUE”.

Turning to “IRF1_GGAAGCATGCTGCCAAGCA: library sgRNA targeting IRF1 (as printed in the source, key not given here)”, the score turned out to be 8.5638, the LFC is listed as 1.6107, the treat mean was 3499.5 and the high_in_treatment entry is on record as “TRUE”.

In the case of “IRF1_TGCCTGTTTGTTCCGGAGC: library sgRNA targeting IRF1 (as printed in the source, key not given here)”, the score turned out to be 11.386, the LFC came out at 1.4325, the treat mean was 8072.2 and the high_in_treatment result is “TRUE”.

Turning to “IRF9_TGTATCAGTTGCTGCCACC: library sgRNA targeting IRF9 (as printed in the source, key not given here)”, the score turned out to be 7.0068, the LFC amounted to 1.2192, the treat mean is listed as 4293.9 and the high_in_treatment entry is “TRUE”.

Consider “LUM_TAGAAAACTCCAAGATAAA: library sgRNA targeting LUM (listed as DNA, chemistry not fully specified)”, for which the score is recorded as 8.61, the LFC came to 4.64, the treat mean worked out at 171.75 and the high_in_treatment entry is “TRUE”.

In the case of “MED26_CCTCGGAACTCACGGCATG: library sgRNA targeting MED26 (as printed in the source, key not given here)”, the score is given as 6.025, the LFC is −1.9192, the treat mean was 1185.6 and the high_in_treatment entry is reported as “FALSE”.

Turning to “MRPL9_CTCCACGATGACCGTGCCC: library sgRNA targeting MRPL9 (as printed in the source, key not given here)”, the score worked out at 6.5755, the LFC is −4.3743, the treat mean worked out at 152.42 and the high_in_treatment result was “FALSE”.

Take “MRPL28_TTCCCCCCGAATCCCAGCG: library sgRNA targeting MRPL28 (as printed in the source, key not given here)”: the score was 7.2159, the LFC was −3.2156, the treat mean was 469.77 and the high_in_treatment result is “FALSE”.

Regarding “MRPL55_CGACTCTACCCCGTGCTGC: library sgRNA targeting MRPL55 (as printed in the source, key not given here)”, the score was found to be 6.305, the LFC is recorded as −4.7404, the treat mean worked out at 104.65 and the high_in_treatment result was “FALSE”.

Take “MRPS26_CCCCCGGCCGCACACCTGA: library sgRNA targeting MRPS26 (as printed in the source, key not given here)”: the score is 7.3571, the LFC was −3.3597, the treat mean is listed as 431.96 and the high_in_treatment result is on record as “FALSE”.

For “MTG2_ATGAGTACATTGCCGCGCT: library sgRNA targeting MTG2 (listed as DNA, chemistry not fully specified)”, the score amounted to 6.5262, the LFC is −4.2612, the treat mean is reported as 163.79 and the high_in_treatment result was “FALSE”.

Take “N6AMT1_AGCAGAAACGTGTCCTCCG: library sgRNA targeting N6AMT1 (listed as DNA, chemistry not fully specified)”: the score turned out to be 6.0901, the LFC was −3.683, the treat mean stood at 224.71 and the high_in_treatment result is recorded as “FALSE”.

Take “NAPG_GCAAAAGATGCCTGCCTGA: library sgRNA targeting NAPG (listed as DNA, chemistry not fully specified)”: the score amounted to 6.3569, the LFC was −6.2732, the treat mean turned out to be 33.086 and the high_in_treatment result is on record as “FALSE”.

Consider “NLRC5_AGTCACGTGTCCTACCGTC: library sgRNA targeting NLRC5 (listed as DNA, chemistry not fully specified)”, for which the score is given as 6.4705, the LFC was found to be 1.0275, the treat mean turned out to be 5262.4 and the high_in_treatment result is “TRUE”.

With “NUDCD3_TCACCACGTGCTTGGGTAC: library sgRNA targeting NUDCD3 (listed as DNA, chemistry not fully specified)”, the score was 6.5243, the LFC is −3.6651, the treat mean is recorded as 262.75 and the high_in_treatment entry is listed as “FALSE”.

In the case of “NUP37_GCCAGCACACACTCATGCC: library sgRNA targeting NUP37 (listed as DNA, chemistry not fully specified)”, the score is on record as 5.9656, the LFC is −1.9711, the treat mean was found to be 1092.8 and the high_in_treatment entry is given as “FALSE”.

As for “OIP5_CGACTCGGTGCACCTCGCC: library sgRNA targeting OIP5 (as printed in the source, key not given here)”, the score is listed as 6.3045, the LFC is given as −7.255, the treat mean is recorded as 16.543 and the high_in_treatment result is given as “FALSE”.

Turning to “OIP5_TATTCTACCCATGCTGCCC: library sgRNA targeting OIP5 (as printed in the source, key not given here)”, the score was 6.4136, the LFC is reported as −5.8943, the treat mean came out at 45.034 and the high_in_treatment result was “FALSE”.
